Experimental data as given in US10538497B2, “Compounds as indoleamine 2,3-dioxygenase inhibitors” (Merck Sharp & Dohme Corp., priority 2015, dated 2020).

Legend:
IDO1 [1] = molecular target: T1, IDO1 (Homo sapiens (Human), UniProt P14902); assay: IDO1 Human Whole Blood Assay; assay type: cell-based; details: LPS and IFNγ 100 ng/mL, kynurenine by LC/MS/MS
IDO1 [2] = molecular target: T1, IDO1; assay: IDO1 Cellular Assay in Frozen HEK293 Cells Transiently Transfected with Human IDO1; assay type: cell-based; details: HEK293 cells transiently transfected with human IDO1; read-out: IDO1 HEK293 Cell Assay, IC50

T1 sequence (P14902 whole entry): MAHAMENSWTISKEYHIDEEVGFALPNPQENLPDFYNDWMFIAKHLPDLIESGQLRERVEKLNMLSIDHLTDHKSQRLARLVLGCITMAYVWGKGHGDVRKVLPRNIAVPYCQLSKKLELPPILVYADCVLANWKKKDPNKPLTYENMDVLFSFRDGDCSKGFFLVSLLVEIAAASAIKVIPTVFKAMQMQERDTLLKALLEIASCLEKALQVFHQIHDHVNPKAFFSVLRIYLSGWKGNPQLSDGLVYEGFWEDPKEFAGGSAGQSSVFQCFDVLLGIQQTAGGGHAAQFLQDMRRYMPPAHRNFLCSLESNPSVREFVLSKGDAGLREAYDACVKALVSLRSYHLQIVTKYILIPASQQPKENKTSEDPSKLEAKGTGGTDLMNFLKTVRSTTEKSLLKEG

Row | Structure (SMILES) | IC50 (IDO1 [1]) | IC50 (IDO1 [2])
1 | O=C(CSc1nonc1/C(=N/O)Nc1ccc(F)c(Br)c1)NC[C@@H](O)CO [Example 42, (R)-2-((4-(N-(3-bromo-4-fluorophenyl)-N′-hydroxycarbamimidoyl)-1,2,5-oxadiazol-3-yl)thio)-N-(2,3-dihydroxypropyl)acetamide] | 519 nM | 59.6 nM
2 | NC(=O)NCCSc1nonc1/C(=N/O)Nc1ccc(F)c(Br)c1 [Example 46, N-(3-Bromo-4-fluorophenyl)-N′-hydroxy-4-((2-ureidoethyl)thio)-1,2,5-oxadiazole-3-carboximidamide] | 239 nM | 16.9 nM
